#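 48-hour exposure; five concentrations; linearly interpolated endpoints. At the TGI there is no net growth.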
# Assays:
# Test in all cases: NCI tumour cell line growth inhibition, 48 h
# [1] = system: 786-0 renal
# [2] = system: A549 NSCLC
# [3] = system: ACHN renal
# [4] = system: BT-549 breast
# [5] = system: CAKI-1 renal
# [6] = system: CCRF-CEM leukemia
# [7] = system: COLO 205 colon
# [8] = system: DU-145 prostate
# [9] = system: EKVX NSCLC
# [10] = system: HCC-2998 colon
# [11] = system: HCT-116 colon
# [12] = system: HCT-15 colon
# [13] = system: HL-60(TB) leukemia
# [14] = system: HOP-62 NSCLC
# [15] = system: HOP-92 NSCLC
# [16] = system: HS 578T breast
# [17] = system: HT29 colon
# [18] = system: IGROV1 ovarian
# [19] = system: K-562 leukemia
# [20] = system: KM12 colon
# [21] = system: LOX IMVI melanoma
# [22] = system: M14 melanoma
# [23] = system: MALME-3M melanoma
# [24] = system: MCF7 breast
# [25] = system: MDA-MB-231 breast
# [26] = system: MDA-MB-435
# [27] = system: MDA-N
# [28] = system: MOLT-4 leukemia
# [29] = system: NCI-H226 lung
# [30] = system: NCI-H23 lung
# [31] = system: NCI-H460 lung
# [32] = system: NCI-H522 lung
# [33] = system: NCI/ADR-RES ovarian
# [34] = system: OVCAR-3 ovarian
# [35] = system: OVCAR-4 ovarian
# [36] = system: OVCAR-5 ovarian
# [37] = system: OVCAR-8 ovarian
# [38] = system: PC-3 prostate
# [39] = system: RPMI-8226 leukemia
# [40] = system: RXF 393 renal
# [41] = system: SF-268 CNS
# [42] = system: SF-295 CNS
# [43] = system: SF-539 CNS
# [44] = system: SK-MEL-2 melanoma
# [45] = system: SK-MEL-28 melanoma
# [46] = system: SK-MEL-5 melanoma
# [47] = system: SK-OV-3 ovarian
# [48] = system: SN12C renal
# [49] = system: SNB-19 CNS
# [50] = system: SNB-75 CNS
# [51] = system: SR leukemia
# [52] = system: SW-620 colon
# [53] = system: T-47D breast
# [54] = system: TK-10 renal
# [55] = system: U251 CNS
# [56] = system: UACC-257 melanoma
# [57] = system: UACC-62 melanoma
# [58] = system: UO-31 renal
# [59] = system: A498 renal
structure (smiles),measurement,setting,value
CC(=O)OCC1OC(OC2CC3C(C)(C)C(=O)CC[C@]3(C)C3CC[C@]45C[C@]4(CCC5[C@@H](C)CC(O)C(O)C(C)(C)O)[C@]23C)C(O)C(O)C1O (stereo partly specified),TGI,[1],26.5 µM
same,TGI,[2],31.6 µM
same,TGI,[3],30 µM
same,TGI,[4],25.9 µM
same,TGI,[5],31.1 µM
same,TGI,[6],16.7 µM
same,TGI,[7],18.5 µM
same,TGI,[8],30.9 µM
same,TGI,[9],29.9 µM
same,TGI,[10],21.7 µM
same,TGI,[11],20 µM
same,TGI,[12],31.4 µM
same,TGI,[13],5.05 µM
same,TGI,[14],33.8 µM
same,TGI,[15],13.7 µM
same,TGI,[16],24.5 µM
same,TGI,[17],16.7 µM
same,TGI,[18],23.2 µM
same,TGI,[19],21.7 µM
same,TGI,[20],19.1 µM
same,TGI,[21],12.6 µM
same,TGI,[22],22.2 µM
same,TGI,[23],27.5 µM
same,TGI,[24],16.7 µM
same,TGI,[25],19.5 µM
same,TGI,[26],21.2 µM
same,TGI,[27],22.7 µM
same,TGI,[28],15.6 µM
same,TGI,[29],30.6 µM
same,TGI,[30],32.7 µM
same,TGI,[31],27.1 µM
same,TGI,[32],22.7 µM
same,TGI,[33],32.8 µM
same,TGI,[34],25.4 µM
same,TGI,[35],25.7 µM
same,TGI,[36],30.8 µM
same,TGI,[37],26.5 µM
same,TGI,[38],21.5 µM
same,TGI,[39],17.2 µM
same,TGI,[40],21.9 µM
same,TGI,[41],21.8 µM
same,TGI,[42],27.1 µM
same,TGI,[43],28.8 µM
same,TGI,[44],17.1 µM
same,TGI,[45],12.6 µM
same,TGI,[46],20.3 µM
same,TGI,[47],28.9 µM
same,TGI,[48],26.4 µM
same,TGI,[49],23.3 µM
same,TGI,[50],18.8 µM
same,TGI,[51],16.9 µM
same,TGI,[52],26 µM
same,TGI,[53],18.8 µM
same,TGI,[54],28.1 µM
same,TGI,[55],20.3 µM
same,TGI,[56],23.6 µM
same,TGI,[57],22.5 µM
same,TGI,[58],32.2 µM
COc1cc(CNC(=O)CCCCCCCCCCSSCCCCCCCCCCC(=O)NCc2ccc(O)c(OC)c2)ccc1O,TGI,[1],> 10 µM
same,TGI,[59],> 10 µM
same,TGI,[2],> 10 µM
same,TGI,[3],> 10 µM
same,TGI,[4],> 10 µM
same,TGI,[5],> 10 µM
same,TGI,[6],> 10 µM
same,TGI,[7],> 10 µM
same,TGI,[8],> 10 µM
same,TGI,[9],> 10 µM
same,TGI,[10],> 10 µM
same,TGI,[11],> 10 µM
same,TGI,[12],> 10 µM
same,TGI,[13],> 10 µM
same,TGI,[14],> 10 µM
same,TGI,[15],> 10 µM
same,TGI,[16],> 10 µM
same,TGI,[17],> 10 µM
same,TGI,[18],> 10 µM
same,TGI,[19],> 10 µM
same,TGI,[20],> 10 µM
same,TGI,[21],> 10 µM
same,TGI,[22],> 10 µM
same,TGI,[23],> 10 µM
same,TGI,[24],> 10 µM
same,TGI,[25],> 10 µM
same,TGI,[26],> 10 µM
same,TGI,[27],> 10 µM
same,TGI,[28],> 10 µM
same,TGI,[29],> 10 µM
same,TGI,[30],> 10 µM
same,TGI,[31],> 10 µM
same,TGI,[32],> 10 µM
same,TGI,[33],> 10 µM
same,TGI,[34],> 10 µM
same,TGI,[35],> 10 µM
same,TGI,[36],> 10 µM
same,TGI,[37],> 10 µM
same,TGI,[38],> 10 µM
same,TGI,[39],> 10 µM
same,TGI,[40],> 10 µM
same,TGI,[41],> 10 µM
same,TGI,[42],> 10 µM
same,TGI,[43],> 10 µM
same,TGI,[44],> 10 µM
same,TGI,[45],> 10 µM
same,TGI,[46],> 10 µM
same,TGI,[47],> 10 µM
same,TGI,[48],> 10 µM
same,TGI,[49],> 10 µM
same,TGI,[50],> 10 µM
same,TGI,[51],> 10 µM
same,TGI,[52],> 10 µM
same,TGI,[53],> 10 µM
same,TGI,[54],> 10 µM
same,TGI,[55],> 10 µM
same,TGI,[56],> 10 µM
same,TGI,[57],> 10 µM

# Reference: PubChem BioAssay (NCI)
